Laboratory results from article PMC5077990, “P53 activation inhibits all types of hematopoietic progenitors and all stages of megakaryopoiesis” (Oncotarget, 2016).
Like-named read-outs stand apart in the source and are kept apart here.

What was measured:
megakaryoblasts / MKs = test: Apoptosis of megakaryoblasts/MKs, Annexin V flow cytometry; format: cell-based, human; conditions: day 6-megakaryoblasts
Protocol: (§1) We also explored the effects of p53 stabilization at a later stage of megakaryocytic differentiation. […] Day 7-MKs were treated with 5 μM Nutlin 3a for 24 or 48 hours, which led to an increase in p53, p21, BAX, BCL2 and BCL-XL levels, confirming a functional p53 activity (Figure 6A). […] Similar results were found with day 6-megakaryoblasts treated with two doses of SAR405838 for 72 hours (Figure 6D/6E) without any major effect on the percentage of CD41^+ cells (Figure 6F). […] As shown in Figure 6D/6E, at the dose of 0.5 μM the SAR405838 induced a 50% decreased in the number of viable cells while the apoptotic cells reached 50% of the total cells. We checked if the effect of SAR405838 on MKs could be reverted by the addition of high TPO doses. CD34^+ progenitors were cultured in serum-free medium supplemented with SCF and low dose of TPO (1 ng/mL) for 6 days. Day 6-megakaryoblasts were then treated with 1.5 μM of SAR405838 for 48 hours and various doses of TPO.
In parallel, the expression of P53, BAK, BCL2L1, NOXA, PUMA, BAX, P21 and P53 were quantified by qRT-PCR related to HPRT. C. […] (n=3). […]
Apoptosis was measured by Annexin V-FITC detection kit (BD Pharmigen, San Diego, CA) and analyzed by flow cytometry on a LSRII (Becton Dickinson Mountain View, CA).

[1] = system: CD34+ progenitors cultured with SCF and TPO; test: Viable CD34+ progenitors at early stage of megakaryocytic differentiation, Trypan blue exclusion; format: cell-based; conditions: Homo sapiens, read-out: IC50, decrease in number of viable cells
Protocol: We explored the effect of p53 stabilization on the viability of CD34^+progenitors at early stages of megakaryocytic differentiation. CD34^+ progenitors were cultured for one day in serum-free medium supplemented with SCF and TPO and treated with SAR405838 or MI-219. After a 48 or 72 hour incubation, cells were counted by Trypan blue exclusion and apoptotic cells were quantified by flow cytometry using Annexin V / Propidium iodide labeling.
A. Cells were counted by Trypan blue exclusion.

[2] = system: CFU-MK (Colony Forming Unit-Megakaryocyte) progenitors from CD34+ cells; test: Colony assay in fibrin clot, CFU-MK; format: cell-based, human; conditions: Homo sapiens
Protocol: CD34^+cells were obtained from leukapheresis samples after mobilization of donors after informed consent in agreement with our Institute Ethic Committee (Assistance Publique des Hôpitaux de Paris) and in accordance with the Declaration of Helsinki. CD34^+cells were isolated by a positive selection using an immunomagnetic cell sorting system (AutoMacs; Miltenyi Biotec, Bergisch Gladbach, Germany). 500 to 1000 normal CD34^+cells were plated either in 1% methylcellulose assay (StemCells technologies, Vancouver, Canada) to quantify erythroid (BFU-E) and granulo-monocytic (CFU-GM) progenitors or in serum-free fibrin clot assay for quantification of MK progenitors (CFU-MK) in the absence or presence of various concentration of SAR405838 or MI-219. Cultures in methylcellulose were stimulated by addition of human recombinant growth factors: G-CSF (20 ng/mL), IL-3 (10 ng/mL) SCF (25 ng/mL, Biovitrum AB, Stockholm, Sweden), IL-6 (10 ng/mL), FLT3 (10 ng/mL) and human EPO (1 U/mL). Cultures in fibrin clot were stimulated with 10 ng/mL TPO (Kirin Brewery, Tokyo, Japan) and 25 ng/mL SCF. BFU-E and CFU-GM colonies were enumerated at day 14 of culture. […]

Day 6-megakaryoblasts = test: Viability of day 6-megakaryoblasts; format: cell-based, human; conditions: 0.5 μM, 72 hours
Protocol: as §1
In parallel, the expression of P53, BAK, BCL2L1, NOXA, PUMA, BAX, P21 and P53 were quantified by qRT-PCR related to HPRT. C. […] (n=3). D, E, F. Day 6-megakaryoblasts were exposed to MI-219 or SAR405838 (0.5 or 1 μM for 72 hours) and cell viability (D), apoptosis (E) or CD41 expression (F) were investigated. […] One representative experiment (n= 2). […]

[3] = system: p53 in day 8-erythroblasts; test: p53 expression by western-blot in day 8-erythroblasts; conditions: Homo sapiens, 192 h, read-out: p53 fold induction (western-blot)
Protocol: For that purpose, CD34^+ progenitors were cultured in serum-free medium with SCF and EPO for 8 days. SAR405838- or MI-219-treated erythroblasts were analyzed for p53 expression by western-blot. […] Day 8-erythroblasts were treated with various doses of SAR405838 or MI-219 for 48 hours.
Figure 4 Effect of SAR405838 on erythroid differentiation A. Day 8-erythroblasts treated with MI-219 or SAR405838 were analyzed for p53 expression by western-blot. β-actin was used as loading control.
Expression levels were performed by western-blot analysis using mouse anti-p53 and anti-β-actin (Sigma-Aldrich), anti-bax (Oncogene), anti-p21 (Beckton Dickenson), anti-Mdm2 (BD Pharmingen), anti-BCL-XL, and rat anti-HSC70 (Stressgen). Proteins were quantified by Image J software.

Day 8-erythroblasts = test: Apoptosis of erythroblasts, Annexin V flow cytometry; format: cell-based, human; conditions: 48 hour treatment, as low as 0.5 μM
Protocol: For that purpose, CD34^+ progenitors were cultured in serum-free medium with SCF and EPO for 8 days. […] Day 8-erythroblasts were treated with various doses of SAR405838 or MI-219 for 48 hours. The viable cells were counted by Trypan blue exclusion and the apoptotic cells were quantified by flow cytometry analysis using annexin V/ propidium iodide labeling.
B. Day 8-erythroblasts were treated with various doses of MI-219 or SAR405838 for 48 hours and counted by trypan blue exclusion. C. Day 8-erythroblasts were treated with various doses of MI-219 or SAR405838 for 48 hours and apoptotic cells were analyzed by flow cytometry using Annexin V assay. The results represent the mean of 3 independent experiments. * represents statistical significance (*P<0.05; **P<0.01; ***P<0.001).

CC(C)(C)C[C@@H]1N[C@@H](C(=O)N[C@H]2CC[C@H](O)CC2)[C@H](c2cccc(Cl)c2F)[C@]12C(=O)Nc1cc(Cl)ccc12 [SAR405838]
apoptotic cells, of the total cells (megakaryoblasts / MKs; 0.5 μM, 72 hours): 50% | reversal of compound-mediated MK apoptosis by increasing doses of TPO (megakaryoblasts / MKs; 1.5 μM for 48 hours, various doses of TPO): unable to revert | IC50 ([1]; 48 hours of treatment): ~1.5 µM | IC50 ([1]; 72 hours of treatment): ~1.5 µM | IC50 ([2]; 72 h, CD34+ cells treated 3 days, washed, then plated in colony assay, read-out: IC50, reduction of CFU-MK progenitors): ~2 µM | IC50 ([2]; CD34+ cells seeded in fibrin clot in the presence of compound, compared to untreated control, read-out: dose inducing a 50% reduction of CFU-MK numbers): 0.5 to 1 µM | decrease in the number of viable cells (Day 6-megakaryoblasts): 50% | fold induction at 2 µM [3]: 4.8 | fold induction at 4 µM [3]: 4.5 | apoptotic cells (annexin V/propidium iodide) (Day 8-erythroblasts): increased in a dose-dependent manner
